# Assay results taken from patent US10039758B2 (priority 2014, dated 2018).
# “Also recorded” adds a separate entry of the source. Read-outs that look alike come from different tables or passages of the source.
# What was measured:
# [1] = target: purified human cathepsin B (Homo sapiens, UniProt P07858); type: biochemical; conditions: 4, 8, 16, 33, 66 uM, without drug pre-incubation (FIG. 16)
# [2] = target: T1, cathepsin B (Mus musculus, UniProt P10605); type: cell-based; conditions: RAW264.7, 4-66 uM, 1 hour before lysis (FIG. 17)
# T1 sequence (P10605 80-333): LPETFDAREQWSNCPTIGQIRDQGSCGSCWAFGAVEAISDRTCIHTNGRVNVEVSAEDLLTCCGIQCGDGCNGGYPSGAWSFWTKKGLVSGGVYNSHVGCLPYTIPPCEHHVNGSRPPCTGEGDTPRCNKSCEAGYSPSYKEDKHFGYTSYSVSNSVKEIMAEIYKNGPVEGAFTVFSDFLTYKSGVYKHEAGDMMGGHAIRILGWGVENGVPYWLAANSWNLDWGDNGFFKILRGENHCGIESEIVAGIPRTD
# [3] = target: T1, cathepsin B; type: biochemical; conditions: RAW264.7 lysate, 4-66 uM (FIG. 18)
# [4] = system: anthrax lethal toxin (LF-PA), RAW264.7 cells; type: cell-based, mouse
# [5] = system: host lysosomal cathepsin B; conditions: cited from earlier work
# [6] = system: diphtheria toxin, C32 human melanoma cell line; type: cell-based
# [7] = system: Ebola virus; conditions: cited from earlier work
# [8] = system: endosomal acidification; conditions: cited from earlier work
# [9] = system: anthrax toxin (12 μg LF + 40 μg PA); set-up: species or system Sprague-Dawley rats; conditions: rat, in vivo
# [10] = system: caspase-1; type: cell-based, mouse
# [11] = system: MEK2; type: cell-based, mouse
# [12] = target: LF (Bacillus anthracis, UniProt P15917); type: biochemical
# Chain of LF (P15917 34-809 limits assumed): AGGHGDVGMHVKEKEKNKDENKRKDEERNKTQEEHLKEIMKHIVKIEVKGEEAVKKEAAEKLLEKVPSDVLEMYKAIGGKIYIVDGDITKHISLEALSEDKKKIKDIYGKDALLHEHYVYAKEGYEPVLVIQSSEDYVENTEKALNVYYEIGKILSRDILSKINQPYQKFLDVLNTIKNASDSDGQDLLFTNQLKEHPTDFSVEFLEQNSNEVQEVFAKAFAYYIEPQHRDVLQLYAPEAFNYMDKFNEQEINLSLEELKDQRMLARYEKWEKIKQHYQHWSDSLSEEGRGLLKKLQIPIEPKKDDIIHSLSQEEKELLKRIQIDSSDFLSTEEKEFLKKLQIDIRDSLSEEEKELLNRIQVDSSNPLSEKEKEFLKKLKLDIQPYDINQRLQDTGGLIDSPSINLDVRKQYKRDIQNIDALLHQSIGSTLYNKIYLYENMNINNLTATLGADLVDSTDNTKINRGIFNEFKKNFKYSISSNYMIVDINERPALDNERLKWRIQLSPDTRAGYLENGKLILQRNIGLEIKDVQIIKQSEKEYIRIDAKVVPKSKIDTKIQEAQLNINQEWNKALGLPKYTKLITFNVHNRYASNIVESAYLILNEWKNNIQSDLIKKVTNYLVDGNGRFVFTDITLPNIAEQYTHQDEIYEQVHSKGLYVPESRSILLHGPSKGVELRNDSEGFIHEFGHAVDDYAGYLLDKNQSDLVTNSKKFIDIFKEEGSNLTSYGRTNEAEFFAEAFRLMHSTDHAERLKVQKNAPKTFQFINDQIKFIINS
# [13] = system: PA+FP59, RAW264.7 cells; type: cell-based, mouse
# [14] = system: PA; type: cell-based, mouse
# [15] = system: acidic organelles; type: cell-based, mouse; conditions: RAW264.7, AQ 1 hour, 500 ng/ml PA 1 hour
# [16] = target: cathepsin B (Homo sapiens, UniProt P07858); type: binding
# [17] = system: Ebola virus (Kikwit); assay: microbe, parasite or virus in culture; type: cell-based; conditions: Zaire ebolavirus, HeLa, 48 h
# [18] = system: Respiratory syncytial virus (RSV): Strain A-2; assay: microbe, parasite or virus in culture; type: cell-based; conditions: human respiratory syncytial virus, HEp-2
# [19] = system: Clostridium difficile Toxin B, RAW264.7 cells
# [20] = system: Human Cytomegalovirus (CMV Strain AD169); conditions: Human Cytomegalovirus assay
# [21] = in vitro
# [22] = in vitro; conditions: human
# [23] = in vitro; conditions: human; remark: listed apart in the source
# [24] = system: Chikungunya virus (CHIV); assay: microbe, parasite or virus in culture; conditions: HFF-1
molecule,measurement,setting,value
"CCNCCCC(C)Nc1ccnc2cc(Cl)ccc12 (stereo not drawn) [DECQ, Desethyl-Chloroquine]","inhibition of cathepsin B activity, purified human cathepsin B",[1],weaker inhibitors of cathepsin B activity
same,cathepsin B enzymatic activity in cells pre-treated with drug,[2],weaker inhibitors of cathepsin B activity
same,cathepsin B activity in protein lysate from cells not exposed to drugs prior to lysis,[3],weaker inhibitors of cathepsin B activity
COc1cc(NC(C)CCCN)c2ncccc2c1 (stereo not drawn) [Primaquine],protection of host cells against anthrax toxin killing (cell survival),[4],"none of the other quinoline-containing antimalarial compounds, Cinchonine, Primaquine, and Quinidine, from JHCCL were active"
C=C[C@H]1C[N@@]2CC[C@H]1C[C@@H]2[C@@H](O)c1ccnc2ccc(OC)cc12 [Quinidine],protection of host cells against anthrax toxin killing (cell survival),[4],"none of the other quinoline-containing antimalarial compounds, Cinchonine, Primaquine, and Quinidine, from JHCCL were active"
CA-074,effect of cathepsin B inhibition on cellular sensitivity to LF-PA,[5],reduction of cellular sensitivity to LF-PA
"CCN(CC)CCCC(C)Nc1ccnc2cc(Cl)ccc12 (stereo not drawn) [CQ, Chloroquine]",multiplex hit in JHCCL screen: inhibition of anthrax and diphtheria toxin cell killing,[6],inhibited anthrax and diphtheria toxins
same,"inhibition of cathepsin B activity, purified human cathepsin B",[1],weaker inhibitors of cathepsin B activity
same,cathepsin B enzymatic activity in cells pre-treated with drug,[2],weaker inhibitors of cathepsin B activity
same,cathepsin B activity in protein lysate from cells not exposed to drugs prior to lysis,[3],weaker inhibitors of cathepsin B activity
same,inhibition of Ebola virus pathogenicity in cells,[7],inhibit Ebola virus pathogenicity in cells
same,endosomal acidification,[8],prevent endosomal acidification
"CCN(CC)Cc1cc(Nc2ccnc3cc(Cl)ccc23)ccc1O [AQ, Amodiaquine]",protection of host cells against anthrax toxin killing (cell survival),[4],increased survival; also recorded: completely protect
same,sensitivity of host cells to PA83+LF versus PA63+LF,[4],equally reduces sensitivity of host cells to both PA83+LF and PA63+LF treatments
same,multiplex hit in JHCCL screen: inhibition of anthrax and diphtheria toxin cell killing,[6],inhibited anthrax and diphtheria toxins
same,survival of C32 cells exposed to diphtheria toxin,[6],increase survival
same,clinical signs of toxin challenge,[9],all of the animals in that group displayed classical signs of having undergone a toxin challenge
same,survival and toxin-associated symptoms,[9],survived; also recorded: protected all of the rats; also recorded: all survived without displaying toxin-associated symptoms
same,active caspase-1 (FLICA fluorescence) after LF-PA,[10],not detected
same,cleavage of MEK2 by LF in cells (immunoblot),[11],completely prevented this effect
same,proteolytic activity of LF on MAPKK peptide (emission at 523 nm),[12],does not block the proteolytic activity of LF
same,sensitivity of cells to PA+FP59,[13],less sensitive to treatment with PA+FP59
same,binding of PA83 to cells and proteolytic processing of PA to PA63,[14],did not block binding of PA83 to cells or block proteolytic processing of PA to generate PA63
same,cell-associated Lysosensor fluorescence (endosomal acidification),[15],markedly decreased cell-associated Lysosensor fluorescence
same,"inhibition of cathepsin B activity, purified human cathepsin B",[1],directly inhibit cathepsin B activity in a dose dependent manner
same,cathepsin B enzymatic activity in cells pre-treated with drug,[2],lost cathepsin B enzymatic activity in a dose dependent manner
same,cathepsin B activity in protein lysate from cells not exposed to drugs prior to lysis,[3],inhibited cathepsin B activity
same,binding to cathepsin B (STD difference spectrum),"[16]; 2 mM AQ, 20 μM cathepsin B",binding to the enzyme
same,"STD effect, atom H4",[16]; relative to the H4 atom (100%),100%
same,"STD effect, atom H5",[16]; relative to the H4 atom (100%),97%
same,EC50,[17],3.8 µM
same,EC50,[18],32 µM
same,survival of RAW264.7 macrophages exposed to Clostridium difficile Toxin B,[19],increase survival
same,CC50,[20],> 60 µM
same,inhibition of Ebola virus pathogenicity in cells,[7],inhibit Ebola virus pathogenicity in cells
same,CC50,[21],31 µM
same,CC50,[22],50 µM
same,CC50,[23],> 50 µM
same,EC50,[24],18.3 µM
"CCNCc1cc(Nc2ccnc3cc(Cl)ccc23)ccc1O [DEAQ, N-Desethyl Amodiaquine]",protection of host cells against anthrax toxin killing (cell survival),[4],increased survival
same,"inhibition of cathepsin B activity, purified human cathepsin B",[1],directly inhibit cathepsin B activity in a dose dependent manner
same,cathepsin B enzymatic activity in cells pre-treated with drug,[2],lost cathepsin B enzymatic activity in a dose dependent manner
same,cathepsin B activity in protein lysate from cells not exposed to drugs prior to lysis,[3],inhibited cathepsin B activity
same,EC50,[17],3.6 µM
C=C[C@H]1C[N@@]2CC[C@H]1C[C@@H]2[C@@H](O)c1ccnc2ccccc12 [Cinchonine],protection of host cells against anthrax toxin killing (cell survival),[4],"none of the other quinoline-containing antimalarial compounds, Cinchonine, Primaquine, and Quinidine, from JHCCL were active"
